This note sets out measurements from PubChem BioAssay (NCI).

Some test systems named below: SNB-78 CNS; HOP-18 NSCLC; XF 498 CNS; DMS 114 small cell lung; 786-0 renal; MDA-N; RXF-631 renal; P388 leukemia; SN12K1 renal; P388/ADR leukemia.
Common to all, as to assay: NCI tumour cell line growth inhibition, 48 h

Structures are written as SMILES.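 Assay format: 96-well plates, 48-hour exposure. TGI marks complete inhibition of growth.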

For the compound `COc1cc(Cc2ccc3c(c2C#N)N(C)c2ccccc2S3)cc(OC)c1OC`, the TGI in the assay with SNB-78 CNS, in the assay on HOP-18 NSCLC, with XF 498 CNS and with DMS 114 small cell lung was more than 100 µM throughout.
As to `O=c1oc2c(ccc3c(O)cccc32)c2c1CCCC2`, the TGI in the assay on 786-0 renal and in the assay on MDA-N was more than 100 µM each time.
As for `COc1cc(C2S/C(=C/c3ccccc3)C(=O)N2c2ccccc2Cl)cc(OC)c1OC` (stereo not given), in the assay with MDA-N, the TGI came to 84.6 µM.
Turning to `Cc1nc(N(CCO)CCO)c2sc(=S)n(-c3ccccc3)c2n1`, the TGI with HOP-18 NSCLC was more than 100 µM.
As to `C/C(=N\NC(=S)Nc1ccc(Cl)cc1)c1nc2ncccc2[nH]1`, the values for the TGI in the assay on 786-0 renal and in the assay on MDA-N were 29.7 µM and 23.1 µM, respectively.
In the case of `BrC1=CN2C[n+]3cc(Br)c4ccccc4c3N=C2c2ccccc21`, in the assay with MDA-N, the TGI was 21.4 µM.
As to `CN(CCO)/N=N/c1nc[nH]c1C(N)=O`, the TGI in the assay on SNB-78 CNS, in the assay with XF 498 CNS and with DMS 114 small cell lung was more than 100 µM each time.
On to `O=C(O)CN=c1c2ccccc2n(O)c2ccccc12`, for which the TGI with SNB-78 CNS, in the assay with 786-0 renal, in the assay with RXF-631 renal, in the assay with HOP-18 NSCLC and in the assay on DMS 114 small cell lung was more than 100 µM each time.
With `CCOC(=O)C(=O)Nc1cccc(C)c1C`, the TGI with SNB-78 CNS, in the assay on HOP-18 NSCLC, with XF 498 CNS and in the assay with DMS 114 small cell lung was more than 100 µM in each case.
`C/C([O-])=C(/c1nc(-c2ccc([N+](=O)[O-])o2)no1)[n+]1cc(C)ccc1C`: the TGI in the assay with SNB-78 CNS is more than 100 µM; in the assay on P388 leukemia it was more than 100 µM; in the assay on SN12K1 renal, 28.6 µM; in the assay on HOP-18 NSCLC, 21.8 µM; in the assay on P388/ADR leukemia, more than 100 µM; in the assay on XF 498 CNS, 21.1 µM. In the assay with DMS 114 small cell lung, the TGI turned out to be 38.9 µM.
